# Data published in publication PMC9814091, “The making of a potent L-lactate transport inhibitor” (Communications Chemistry, 2021).
# pKi: −log10 of the molar value. Like-named read-outs stand apart in the source and are kept apart here.
# Assays:
# SfMCT [1] = molecular target: T1, SfMCT (Syntrophobacter fumaroxidans, UniProt A0LNN5); assay: cell-based; type: cell-based; conditions: for times more potent than BA (starting compound): ratio of Ki values versus BA
# T1 construct: expressed in transfected cells; host or cells: E. coli JA202 (MC4100 glcA::cat lldP::kan) transformed with pEXT20-SfMCT-3C-10His
# T1 sequence (A0LNN5 1-412): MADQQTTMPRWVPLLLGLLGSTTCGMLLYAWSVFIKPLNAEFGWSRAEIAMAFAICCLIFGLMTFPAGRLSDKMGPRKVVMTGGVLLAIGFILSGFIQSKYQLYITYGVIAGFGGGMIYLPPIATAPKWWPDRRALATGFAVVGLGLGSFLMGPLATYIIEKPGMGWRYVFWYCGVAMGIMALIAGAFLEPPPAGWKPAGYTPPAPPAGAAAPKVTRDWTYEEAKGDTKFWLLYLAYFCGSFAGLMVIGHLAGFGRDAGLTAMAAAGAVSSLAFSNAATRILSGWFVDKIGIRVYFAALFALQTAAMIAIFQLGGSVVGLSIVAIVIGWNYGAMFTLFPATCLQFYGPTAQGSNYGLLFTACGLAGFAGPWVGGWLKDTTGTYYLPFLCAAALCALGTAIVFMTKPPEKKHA
# From the text: The previously characterized ligand binding site provides space to accommodate molecules that are larger than TSA. […] Only molecules containing one carboxylate-group were considered (i.e., monocarboxylates) as R280 (TM8) is the only positively-charged residue in the ligand binding site region. […] The binding site also contains hydrophobic and aromatic residues, which can be involved in hydrophobic and π-stacking interactions with bound molecules. Therefore, the focus of the screen was set on aromatic monocarboxylates, which are summarized in Supplementary Fig. 1. To evaluate the inhibitory effect of the selected molecules, an inhibition assay was set up where the transport of [^14C]L-lactate through SfMCT was measured in the absence and presence of different inhibitors at decreasing concentrations. In a first step, the inhibitory effects of BA, as well as hydroxylated and methylated BA derivatives on L-lactate transport, were investigated at a concentration of 500 µM (Fig. 1A, red).
# (§1) Uptake experiments were done as described previously[6],[40]. Overnight precultures of E. coli JA202 (MC4100 glcA::cat lldP::kan)[42], which were transformed with a plasmid carrying SfMCT (pEXT20-SfMCT-3C-10His), were diluted 1:200 into LB-medium supplemented with 100 μg/ml ampicillin. Cultures were grown at 37 °C and 180 r.p.m. in an incubator shaker (Multitron, Infors HT). At OD600 ~0.5, isopropyl-β-D-thiogalactopyranoside was added to the culture to a final concentration of 250 µM to induce SfMCT expression. In the case of E. coli MC4100 (DSM 6574, German Collection of Microorganisms and Cell Cultures), an overnight preculture was diluted 1:200 into LB-medium supplemented with 50 μg/ml streptomycin and grown at 37 °C and 180 r.p.m. in an incubator shaker (Multitron, Infors HT). Bacteria were harvested 4 h post-induction (E. coli JA202) or 6 h post-inoculation (E. coli MC4100) (5200 × g, 10 min, room temperature). The supernatant was discarded and the bacteria were gently resuspended in uptake buffer (20 mM Bis-Tris propane-HCl (pH 6.7), 250 mM KCl). The density of the bacteria suspension was adjusted to OD600 12. Transport experiments were done in a reaction volume of 50 µl, which consisted of 20 µl cell-suspension (2.4 × 10^8 bacteria), 10 µl substrate master mix (67 µM sodium L-lactate spiked with [14C(U)] L-lactic acid sodium salt ([^14C]L-lactate, American Radiolabeled Chemicals) to a specific activity of 0.15 Ci/mmol) and 20 µl monocarboxylate inhibitor solution. […] All monocarboxylate inhibitors were purchased from Merck (i.e., SigmaAldrich) with the exception of 6-methyl-salicylate (6MSA) that was purchased from Fluorochem. Uptake experiments were performed in 2 ml reaction tubes (Eppendorf) at 30 °C under agitation (1000 r.p.m., Thermomixer compact, Eppendorf). After 30 min, reactions were stopped by adding 900 μl stop buffer (20 mM HEPES-NaOH (pH 7.5), 150 mM NaCl) followed by centrifugation (21,000 × g, 4 min, room temperature). Pelleted bacteria were then washed two times with 900 μl stop buffer to remove free radioligand. Finally, bacteria were lysed using 50 μl 5% (w/v) sodium dodecylsulfate and transferred into a 96-well plate (Optiplate, PerkinElmer). 150 µl scintillation cocktail (MicroScint 40, PerkinElmer) were added to each well before measuring each well for 2 min with a scintillation counter (TopCount NXT, PerkinElmer). For data analysis Prism6 (GraphPad Software) was used.
# SfMCT Y331F mutant = molecular target: T2, SfMCT Y331F mutant (Syntrophobacter fumaroxidans, UniProt A0LNN5, Y331F); type: cell-based; conditions: 25 µM 1OHN2C; 10 µM N2C, 3PP, 2M3PP
# T2 construct: expressed in transfected cells; host or cells: E. coli JA202 (inferred: same uptake protocol as wild type)
# Protocol: as §1, with “Finally, bacteria were lysed using 50 μl 5% (w/v) sodium dodecylsulfate and transferred into a 96-well plate (Optiplate, PerkinElmer). 150 µl scintillation cocktail (MicroScint 40, PerkinElmer) were added to each well before measuring each well for 2 min with a scintillation counter (TopCount NXT, PerkinElmer). For data analysis Prism6 (GraphPad Software) was used.” left out
# [2] = test system: E. coli L-lactate permeases (i.e., LldP and GlcA); assay: [14C]L-lactate transport into E. coli MC4100 (test for a protonophoric effect); type: cell-based; conditions: 100 µM compound
# SfMCT [3] = molecular target: T1, SfMCT; assay: Transport assay with radiolabeled monocarboxylates as potential SfMCT substrates; type: cell-based; conditions: 40 µM 14C-labeled compound, 0.1 µCi per reaction
# SfMCT [4] = molecular target: T1, SfMCT; set-up: method as in PMID 31201333; conditions: cited from earlier work
# [5] = inhibitor 100 µM, methylated SA derivatives and 3OH4MBA (Fig. 1A, blue)
# [6] = [14C]L-lactate uptake, SfMCT-expressing E. coli JA202, pH 6.7, 30 °C, 30 min, read-out: Ki (inhibition of L-lactate transport)
# [7] = inhibitor 10 µM, hydroxylated and methylated 3PP derivatives (Fig. 1A, magenta)
# [8] = inhibitor 500 µM, BA and hydroxylated and methylated BA derivatives (Fig. 1A, red)
# [9] = inhibitor 25 µM, naphthoate derivatives (Fig. 1A, orange)
# T2 sequence (A0LNN5 whole entry Y331F): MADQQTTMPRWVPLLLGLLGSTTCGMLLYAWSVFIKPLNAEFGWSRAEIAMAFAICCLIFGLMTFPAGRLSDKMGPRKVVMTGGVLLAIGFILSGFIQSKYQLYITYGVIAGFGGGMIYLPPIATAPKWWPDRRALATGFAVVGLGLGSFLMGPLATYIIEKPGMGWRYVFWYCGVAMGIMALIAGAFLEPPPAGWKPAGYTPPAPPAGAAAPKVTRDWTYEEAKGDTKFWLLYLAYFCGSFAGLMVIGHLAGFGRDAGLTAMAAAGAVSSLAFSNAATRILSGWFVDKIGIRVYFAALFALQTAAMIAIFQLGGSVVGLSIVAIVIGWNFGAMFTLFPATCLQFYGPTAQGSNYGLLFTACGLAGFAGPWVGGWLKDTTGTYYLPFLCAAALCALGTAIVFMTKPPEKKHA
structure (smiles),measurement,setting,value
"Cc1ccc(C(=O)O)cc1O [3OH4MBA, 3-hydroxy-4-methyl-benzoate]",inhibitory effect on L-lactate transport in the screen,SfMCT [1]; [5],strongly reduced inhibition of L-lactate transport
"Cc1ccccc1CCC(=O)O [2M3PP, 3-(2-methylphenyl)-propionate]",pKi,SfMCT [1]; [6],6.33
same,inhibitory effect on L-lactate transport in the screen,SfMCT [1]; [7],strongest inhibitory effect on L-lactate transport among the tested methylated derivatives
same,times more potent than BA (starting compound),SfMCT [1],~1000 times
same,reduction of L-lactate transport inhibition by the Y331F mutation versus wild type,SfMCT Y331F mutant,~ 2 fold
same,effect on [14C]L-lactate transport activity of E. coli MC4100,[2],no significant reduction
"O=C(O)CCc1cccc(O)c1 [3OH3PP, 3-(3-hydroxyphenyl)-propionate]",inhibitory effect on L-lactate transport in the screen,SfMCT [1]; [7],strongest L-lactate transport reduction among the tested hydroxylated derivatives
"Cc1ccc(C(=O)O)cc1 [4MBA, 4-methyl-benzoate]",pKi,SfMCT [1],4.87
same,inhibitory effect on L-lactate transport in the screen,SfMCT [1]; [8],strongest reduction of L-lactate transport activity
same,times more potent than BA (starting compound),SfMCT [1],~ 30 times
"O=C(O)/C=C/c1ccccc1 [CA, trans-cinnamate]",pKi,SfMCT [1],5.60
"Cc1ccc(C(=O)O)c(O)c1 [4MSA, 4-methyl-salicylate]",pKi,SfMCT [1],4.61
same,inhibitory effect on L-lactate transport in the screen,SfMCT [1]; [5],strongest reduction of L-lactate transport among the methylated SA-derivatives
"O=C(O)c1ccc2ccccc2c1 [N2C, 2-naphthoate]",pKi,SfMCT [1]; [6],5.62
same,inhibitory effect on L-lactate transport in the screen,SfMCT [1]; [9],strongest reduction of L-lactate transport among the tested naphthoate derivatives
same,reduction of L-lactate transport inhibition by the Y331F mutation versus wild type,SfMCT Y331F mutant,~ 2 fold
same,effect on [14C]L-lactate transport activity of E. coli MC4100,[2],no significant reduction
"O=C(O)c1ccccc1O [SA, salicylate]",pKi,SfMCT [1],3.44
same,inhibitory effect on L-lactate transport in the screen,SfMCT [1]; [8],strongest decrease in L-lactate transport activity
same,transport of the radiolabeled compound by SfMCT,SfMCT [3],does not transport
"O=C(O)c1ccccc1S [TSA, thiosalicylate]",transport of the compound by SfMCT,SfMCT [4],non-transported
"O=C(O)c1ccc2ccccc2c1O [1OHN2C, 1-hydroxy-2-naphthoate]",pKi,SfMCT [1],4.79
same,inhibitory effect on L-lactate transport in the screen,SfMCT [1]; [9],strongest reduction of L-lactate transport among the tested naphthoate derivatives
same,reduction of L-lactate transport inhibition by the Y331F mutation versus wild type,SfMCT Y331F mutant,~ 2 fold
same,effect on [14C]L-lactate transport activity of E. coli MC4100,[2],no significant reduction
"O=C(O)CCc1ccccc1 [3PP, 3-phenylpropionate]",pKi,SfMCT [1],6.09
same,inhibitory effect on L-lactate transport in the molecular ruler experiment,"SfMCT [1]; BA, PA, 3PP and 4PB compared (Fig. 1A, black)",most potent inhibitor
same,times more potent than BA (starting compound),SfMCT [1],~ 530 times
same,transport of the radiolabeled compound by SfMCT,SfMCT [3],does not transport
same,effect on [14C]L-lactate transport activity of E. coli MC4100,[2],no significant reduction
"N#CC(C#N)=NNc1cccc(Cl)c1 [CCCP, carbonyl cyanide 3-chlorophenylhydrazone, reference compound]",effect on [14C]L-lactate transport activity of E. coli MC4100,[2],reduced the uptake activity almost
"O=C(O)c1ccccc1 [BA, benzoate]",pKi,SfMCT [1],3.37
